For orientation: pIC50 means the negative decadic logarithm of the IC50, by convention in mol/L.

Structures are written as SMILES. pIC50: −log10 of the molar value. Where a SMILES comes first, the peptide text is derived from it. Bridges are numbered along the chain shown (N, C = ends). [ ]: non-standard residue; d: D form. The star is where a group is joined. Phe(4-COOH) = N[C@@H](Cc1ccc(C(=O)O)cc1)C(=O)O; Bip = N[C@@H](Cc1ccc(-c2ccccc2)cc1)C(=O)O; Phe(4-NH2) = Nc1ccc(C[C@H](N)C(=O)O)cc1; Phe(3-Me) = Cc1cccc(C[C@H](N)C(=O)O)c1; Val(3-OH) = CC(C)(O)[C@H](N)C(=O)O; 4Pal = N[C@@H](Cc1ccncc1)C(=O)O; Cha = N[C@@H](CC1CCCCC1)C(=O)O; NMeNle = CCCC[C@H](NC)C(=O)O; Carboxymethyl = O=C(O)C*; Orn = NCCC[C@H](N)C(=O)O; Dab = NCC[C@H](N)C(=O)O; Dap = NC[C@H](N)C(=O)O; Piv = CC(C)(C)C(=O)*

In the assay the target is T1, human PD-1 / PD-L1-Ig binding on Jurkat cell line over-expressing human PD-1 (Jurkat-PD-1) (Homo sapiens, UniProt Q15116).
T1 construct: expressed in transfected cells; host or cells: Jurkat
In words: Jurkat-PD-1 Cell Binding High-Content Screening Assay (CBA). Particulars: Jurkat-PD-1 cells, PE-labeled PD-L1-Ig 20 nM final; read-out: Jurkat HPD1_PDL1 IC50. The class given is cell-based. In outline: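 Compounds were preincubated with Jurkat-hPD-1 cells in DMEM plus 10% fetal calf serum for 2 h at 37° C. Phycoerythrin-labeled PD-L1-Ig (20 nM final) was then added for 1 hour. Cells were fixed in 4% paraformaldehyde with Hoechst 33342, and bound fluorescence was quantified by high-content imaging.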

T1 sequence (Q15116 25-288): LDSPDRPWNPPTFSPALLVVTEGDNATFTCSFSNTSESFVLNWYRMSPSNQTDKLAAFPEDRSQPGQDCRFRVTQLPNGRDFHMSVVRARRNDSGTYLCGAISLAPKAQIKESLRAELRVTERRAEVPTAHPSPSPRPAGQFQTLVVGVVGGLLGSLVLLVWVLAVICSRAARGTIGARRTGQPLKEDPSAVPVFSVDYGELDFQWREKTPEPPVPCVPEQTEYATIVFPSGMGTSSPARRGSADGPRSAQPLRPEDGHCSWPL

Consider `Cc1cccc(C[C@@H]2NC(=O)[C@H](CC(=O)O)NC(=O)[C@H](Cc3ccc(OCC(=O)O)cc3)NC(=O)[C@H](CN)NC(=O)CSC[C@@H](C(=O)N[C@@H](CCN)C(N)=O)NC(=O)[C@H](CCCN)NC(=O)[C@H](C(C)C)NC(=O)[C@H](CC3CCCCC3)NC(=O)[C@H](CCNC(=O)C(C)(C)C)NC(=O)[C@@H](CC(C)C)NC(=O)[C@H](CCCN)NC(=O)[C@H](Cc3ccc(O)cc3)NC(=O)[C@H](Cc3ccc(-c4ccccc4)cc3)NC(=O)[C@H](Cc3ccc(O)cc3)NC2=O)c1` [Compound 2036] ({CH2CO}-[Dap]Y(Carboxymethyl)D[Phe(3-Me)]Y[Bip]Y[Orn][dL][Dab](Piv)[Cha]V[Orn]C[Dab]-NH2; thioether N-14), for which the pIC50 is 8.00.

`CC(C)C[C@@H]1NC(=O)[C@H](Cc2c[nH]c3ccccc23)NC(=O)[C@H](CC(=O)O)NC(=O)[C@H](Cc2ccc(OCC(=O)O)cc2)NC(=O)[C@H](CN)NC(=O)CSC[C@@H](C(=O)NCC(N)=O)NC(=O)[C@H](CO)NC(=O)[C@H](C(C)C)NC(=O)[C@H](CC2CCCCC2)NC(=O)[C@H](CCN)NC(=O)[C@@H](CC(C)C)NC(=O)[C@H](CCCN)NC(=O)[C@H](C(C)C)NC(=O)[C@H](Cc2ccc(-c3ccccc3)cc2)NC1=O` [Compound 1403] ({CH2CO}-[Dap]Y(Carboxymethyl)DWL[Bip]V[Orn][dL][Dab][Cha]VSCG-NH2; thioether N-14): the negative-log IC50 (pIC50) is 8.23.

As to `CCCC[C@H]1C(=O)N[C@@H](Cc2ccc(C(=O)O)cc2)C(=O)N[C@@H](CC(=O)O)C(=O)N[C@@H](Cc2cccc(C)c2)C(=O)N[C@@H](Cc2ccc(OCC(=O)O)cc2)C(=O)N[C@@H](Cc2ccc(-c3ccccc3)cc2)C(=O)N[C@@H](Cc2ccc(OCC(=O)O)cc2)C(=O)N[C@@H](CCCN)C(=O)N[C@H](CC(C)C)C(=O)N[C@@H](CCN)C(=O)N[C@@H](CC2CCCCC2)C(=O)N[C@@H](C(C)(C)O)C(=O)N[C@@H](CCC(=O)O)C(=O)N[C@H](C(=O)N[C@@H](CCN)C(N)=O)CSCC(=O)N1C` [Compound 2688] ({CH2CO}-[NMeNle][Phe(4-COOH)]D[Phe(3-Me)]Y(Carboxymethyl)[Bip]Y(Carboxymethyl)[Orn][dL][Dab][Cha][Val(3-OH)]EC[Dab]-NH2; thioether N-14), the negative-log IC50 (pIC50) was 7.38.

In the case of `Cc1cccc(C[C@@H]2NC(=O)[C@H](CC(=O)O)NC(=O)[C@H](Cc3ccncc3)NC(=O)[C@H](CN)NC(=O)CSC[C@@H](C(=O)N[C@@H](C)C(N)=O)NC(=O)[C@H]([C@@H](C)O)NC(=O)[C@H](C(C)C)NC(=O)[C@H](CC3CCCCC3)NC(=O)[C@H](CCN)NC(=O)[C@@H](Cc3ccccc3)NC(=O)[C@H](CCCN)NC(=O)[C@H](CCC(=O)O)NC(=O)[C@H](Cc3ccc(-c4ccccc4)cc3)NC(=O)[C@H](C(C)C)NC2=O)c1` [Compound 1429] ({CH2CO}-[Dap][4Pal]D[Phe(3-Me)]V[Bip]E[Orn][dF][Dab][Cha]VTCA-NH2; thioether N-14), the negative-log IC50 (pIC50) was 8.02.

As for `CC(C)C[C@H]1NC(=O)[C@H](CCCN)NC(=O)[C@H](CCC(=O)O)NC(=O)[C@H](Cc2ccc(-c3ccccc3)cc2)NC(=O)[C@H](C(C)C)NC(=O)[C@H](Cc2c[nH]c3ccccc23)NC(=O)[C@H](CC(=O)O)NC(=O)[C@H](Cc2ccc(OCC(=O)O)cc2)NC(=O)[C@H](CN)NC(=O)CSC[C@@H](C(=O)N[C@@H](C)C(N)=O)NC(=O)[C@H]([C@@H](C)O)NC(=O)[C@H](C(C)C)NC(=O)[C@H](Cc2ccc(N)cc2)NC(=O)[C@H](CCN)NC1=O` [Compound 1473] ({CH2CO}-[Dap]Y(Carboxymethyl)DWV[Bip]E[Orn][dL][Dab][Phe(4-NH2)]VTCA-NH2; thioether N-14), the pIC50 is 6.10.

As for `CC[C@@H]1NC(=O)[C@H](Cc2ccc(-c3ccccc3)cc2)NC(=O)[C@H](C(C)C)NC(=O)[C@H](Cc2cccc(C)c2)NC(=O)[C@H](CC(=O)O)NC(=O)[C@H](Cc2ccc(C(=O)O)cc2)NC(=O)[C@H](Cc2ccncc2)NC(=O)CSC[C@@H](C(=O)N[C@@H](C)C(N)=O)NC(=O)[C@H]([C@@H](C)O)NC(=O)[C@H](C(C)C)NC(=O)[C@H](CC2CCCCC2)NC(=O)[C@H](CCN)NC(=O)[C@@H](CC(C)C)NC(=O)[C@H](CCCN)NC1=O` [Compound 1619], the negative logarithm of the IC50 (pIC50) was 7.84.
